Legend:
[1] = tested on: bedstraw; test: Test B pre/postemergence bedstraw; format: in vivo, Galium aparine
In short: (§1)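 Response is a visual 0-to-10 score relative to untreated plants, where 0 means no effect and 10 means complete control, taken twelve to sixteen days after application. Treatments went onto soil at planting and onto foliage of 1- to 4-leaf plants, using a surfactant-containing non-phytotoxic solvent.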

[2] = tested on: surinam grass; test: Test B pre/postemergence surinam grass; format: in vivo, Brachiaria decumbens
In short: as §1

[3] = tested on: cocklebur; test: Test B pre/postemergence cocklebur; format: in vivo, Xanthium strumarium
In short: as §1

[4] = tested on: corn; test: Test B pre/postemergence corn; format: in vivo, Zea mays
In short: as §1

[5] = tested on: crabgrass; test: Test B pre/postemergence crabgrass; format: in vivo, Digitaria sanguinalis
In short: as §1

[6] = tested on: giant foxtail; test: Test B pre/postemergence giant foxtail; format: in vivo, Setaria faberii
In short: as §1

[7] = tested on: morningglory; test: Test B pre/postemergence morningglory; format: in vivo, Ipomoea hederacea
In short: as §1

[8] = tested on: pigweed; test: Test B pre/postemergence pigweed; format: in vivo, Amaranthus retroflexus
In short: as §1

[9] = tested on: rape; test: Test B pre/postemergence rape; format: in vivo, Brassica napus
In short: as §1

[10] = tested on: soybean; test: Test B pre/postemergence soybean; format: in vivo, Glycine max
In short: as §1

[11] = tested on: sugar beet; test: Test B pre/postemergence sugar beet; format: in vivo, Beta vulgaris
In short: as §1

[12] = tested on: velvetleaf; test: Test B pre/postemergence velvetleaf; format: in vivo, Abutilon theophrasti
In short: as §1

[13] = tested on: wheat; test: Test B pre/postemergence wheat; format: in vivo, Triticum aestivum
In short: as §1

[14] = tested on: purple nutsedge; test: Test B pre/postemergence purple nutsedge; format: in vivo, Cyperus rotundus; conditions: for Nutsedge plant response rating: Postemergence; for Plant response rating, Nutsedge: Preemergence
In short: as §1

[15] = tested on: duck salad; test: Test B flood test duck salad; format: in vivo, Heteranthera limosa
In short: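 Plants were grown to the 2-leaf stage before treatment with test chemical, then held in a greenhouse for twelve to sixteen days. Injury was visually rated against untreated controls on a 0–10 scale, where 0 is no effect and 10 is complete control.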

[16] = Postemergence, Rate 62 g/ha, scale 0 to 10, 0 is no effect, 10 is complete control
[17] = Postemergence, Rate 250 g/ha, scale 0 to 10, 0 no effect, 10 complete control
[18] = Preemergence, Rate 125 g/ha, scale 0 to 10 (0 no effect, 10 complete control)
[19] = Preemergence, Rate 250 g/ha, scale of 0 to 10 where 0 is no effect and 10 is complete control
[20] = Preemergence, Rate 500 g/ha, scale 0 (no effect) to 10 (complete control)
[21] = Rate 125 g/ha, Postemergence, scale 0 to 10, 0 no effect, 10 complete control
[22] = Preemergence, Rate 62 g/ha, scale 0 to 10, 0 is no effect, 10 is complete control
[23] = Rate 500 g/ha, Postemergence, scale 0 to 10, 0 no effect, 10 complete control

Cc1cccc(C)c1-n1c(=O)on(C(=O)N(c2ccc(Cl)cc2)C(C)C)c1=O [Compound 47]
Bedstraw plant response rating [1, 16]: 0 | Bedstraw plant response rating [1, 17]: 6 | Plant response rating, Bedstraw [1, 18]: 0 | Plant response rating, Bedstraw [1, 19]: 0 | Bedstraw plant response rating [1, 20]: 0 | Bedstraw plant response rating [1, 21]: 3 | B. signalgrass plant response rating [2, 16]: 0 | B. signalgrass plant response rating [2, 17]: 0 | Plant response rating, B. signalgrass [2, 22]: 0 | Plant response rating, B. signalgrass [2, 18]: 0 | Plant response rating, B. signalgrass [2, 19]: 0 | B. signalgrass plant response rating [2, 20]: 0 | B. signalgrass plant response rating [2, 21]: 0 | B. signalgrass plant response rating ([2]; Rate 500 g/ha, Postemergence, scale of 0 to 10 where 0 is no effect and 10 is complete control): 0 | Cocklebur plant response rating [3, 16]: 0 | Cocklebur plant response rating [3, 17]: 2 | Plant response rating, Cocklebur [3, 22]: 0 | Plant response rating, Cocklebur [3, 18]: 0 | Plant response rating, Cocklebur [3, 19]: 0 | Cocklebur plant response rating [3, 20]: 0 | Cocklebur plant response rating [3, 21]: 0 | Cocklebur plant response rating [3, 23]: 2 | Corn plant response rating [4, 16]: 0 | Corn plant response rating [4, 17]: 0 | Plant response rating, Corn [4, 22]: 0 | Plant response rating, Corn [4, 18]: 0 | Plant response rating, Corn [4, 19]: 0 | Corn plant response rating [4, 20]: 0 | Corn plant response rating [4, 21]: 0 | Corn plant response rating [4, 23]: 0 | Crabgrass plant response rating [5, 16]: 0 | Crabgrass plant response rating [5, 17]: 0 | Plant response rating, Crabgrass [5, 22]: 0 | Plant response rating, Crabgrass [5, 18]: 2 | Plant response rating, Crabgrass [5, 19]: 2 | Crabgrass plant response rating [5, 20]: 5 | Crabgrass plant response rating [5, 21]: 0 | Crabgrass plant response rating [5, 23]: 2 | Giant foxtail plant response rating [6, 16]: 0 | Giant foxtail plant response rating [6, 17]: 0 | Plant response rating, Giant foxtail [6, 22]: 0 | Plant response rating, Giant foxtail [6, 18]: 2 | Plant response rating, Giant foxtail [6, 19]: 3 | Giant foxtail plant response rating [6, 20]: 3 | Giant foxtail plant response rating [6, 21]: 0 | Giant foxtail plant response rating [6, 23]: 2 | Morningglory plant response rating [7, 16]: 1 | Morningglory plant response rating [7, 17]: 4 | Plant response rating, Morningglory [7, 22]: 0 | Plant response rating, Morningglory [7, 18]: 0 | Plant response rating, Morningglory [7, 19]: 0 | Morningglory plant response rating [7, 20]: 0 | Morningglory plant response rating [7, 21]: 2 | Morningglory plant response rating [7, 23]: 6 | Redroot pigweed plant response rating [8, 16]: 0 | Redroot pigweed plant response rating [8, 17]: 0 | Plant response rating, Redroot pigweed [8, 22]: 0 | Plant response rating, Redroot pigweed [8, 18]: 0 | Plant response rating, Redroot pigweed [8, 19]: 0 | Redroot pigweed plant response rating [8, 20]: 0 | Redroot pigweed plant response rating [8, 21]: 0 | Redroot pigweed plant response rating [8, 23]: 2 | Rape plant response rating [9, 16]: 0 | Rape plant response rating [9, 17]: 0 | Plant response rating, Rape [9, 22]: 0 | Plant response rating, Rape [9, 18]: 0 | Plant response rating, Rape [9, 19]: 0 | Rape plant response rating [9, 20]: 0 | Rape plant response rating [9, 21]: 0 | Rape plant response rating [9, 23]: 0 | Soybean plant response rating [10, 16]: 2 | Soybean plant response rating [10, 17]: 2 | Plant response rating, Soybean [10, 22]: 0 | Plant response rating, Soybean [10, 18]: 0 | Plant response rating, Soybean [10, 19]: 0 | Soybean plant response rating [10, 20]: 0 | Soybean plant response rating [10, 21]: 2 | Soybean plant response rating [10, 23]: 2 | Sugarbeets plant response rating [11, 16]: 0 | Sugarbeets plant response rating [11, 17]: 0 | Plant response rating, Sugarbeets [11, 22]: 0 | Plant response rating, Sugarbeets [11, 18]: 0 | Plant response rating, Sugarbeets [11, 19]: 0 | Sugarbeets plant response rating [11, 20]: 0 | Sugarbeets plant response rating [11, 21]: 0 | Sugarbeets plant response rating [11, 23]: 0 | Velvetleaf plant response rating [12, 16]: 0 | Velvetleaf plant response rating [12, 17]: 0 | Plant response rating, Velvetleaf [12, 22]: 0 | Plant response rating, Velvetleaf [12, 18]: 0 | Plant response rating, Velvetleaf [12, 19]: 0 | Velvetleaf plant response rating [12, 20]: 0 | Velvetleaf plant response rating [12, 21]: 0 | Velvetleaf plant response rating [12, 23]: 0 | Wheat plant response rating [13, 16]: 0 | Wheat plant response rating [13, 17]: 2 | Plant response rating, Wheat [13, 22]: 0 | Plant response rating, Wheat [13, 18]: 0 | Plant response rating, Wheat [13, 19]: 0 | Wheat plant response rating [13, 20]: 0 | Wheat plant response rating [13, 21]: 0 | Wheat plant response rating [13, 23]: 3 | Nutsedge plant response rating ([14]; Rate 62 g/ha, scale 0 to 10, 0 is no effect, 10 is complete control): 0 | Nutsedge plant response rating ([14]; Rate 250 g/ha, scale 0 to 10, 0 no effect, 10 complete control): 0 | Plant response rating, Nutsedge ([14]; Rate 125 g/ha, scale 0 to 10 (0 no effect, 10 complete control)): 0 | Plant response rating, Nutsedge ([14]; Rate 250 g/ha, scale of 0 to 10 where 0 is no effect and 10 is complete control): 0 | Nutsedge plant response rating ([14]; Rate 125 g/ha, scale 0 to 10, 0 no effect, 10 complete control): 0 | Nutsedge plant response rating ([14]; Rate 500 g/ha, scale 0 to 10, 0 no effect, 10 complete control): 0 | Ducksalad plant response rating ([15]; Rate 125 g/ha, Postemergence section (flood test species), scale 0 to 10, 0 no effect, 10 complete control): 0 | Ducksalad plant response rating ([15]; Rate 125 g/ha, Pre-emergence, flood test species, scale 0 to 10 where 0 is no effect and 10 is complete control): 0 | Ducksalad plant response rating ([15]; Rate 250 g/ha, headed Pre-emergence (flood test species), scale 0 to 10 (0 no effect, 10 complete control)): 0 | Plant response rating, Ducksalad ([15]; Rate 500 g/ha, headed Pre-emergence (flood test species), scale 0 to 10 (0 no effect, 10 complete control)): 0 | Ducksalad plant response rating ([15]; Rate 1000 g/ha, Pre-emergence (as headed), scale 0 to 10): 3 | Ducksalad plant response rating ([15]; Rate 2000 g/ha, Pre-emergence (as headed), scale 0 to 10): 0

Source: patent US6737383B1, “Herbicidal oxadiazolidines” (priority 1999, dated 2004)
